Experimental data as given in patent US8143397B2 (Medichem S.A., priority 2006, dated 2012).

test: Particle size distribution (Malvern laser particle size analyser); assay type: physicochemical; details: dispersed in 0.1% Tween 20 in DI water, sonicated 2 minutes
Method: vii. Particle Size Distribution
Particle size measurement was obtained using a Malvern particle size analyser equipped with a 2 milliwatt Helium/Neon laser and a Fourier Transform lens system. The sample was run using the […]. The sample unit was a MS1-Small Volume Sample Dispersion Unit stirred cell. The dispersant was DI water. The sample particle size distribution was assumed to follow a normal distribution.
Analysis model: polydisperse.
Setup presentation: standard wet (30HD)
1 ml of Tween 20 was diluted to 1000 ml with water (solution 0.1% of Tween 20 in DI water). Approximately 250 mg of sample was dispersed in 20 ml of the solution 0.1% of Tween 20 in DI water. This sample was sonicated for 2 minutes and delivered dropwise to the previously filled and background corrected measuring cell until the desired obscuration was reached.
This dispersion (the dispersion in the stirring measuring cell) was measured after stabilization of the obscuration.

In order of falling “Mean Diameter” value:
1. C[C@@H](c1ncncc1F)[C@](O)(Cn1cncn1)c1ccc(F)cc1F [Example 19, Voriconazole]  23.3 μm
2. C[C@@H](c1ncncc1F)[C@](O)(Cn1cncn1)c1ccc(F)cc1F [Example 22, Voriconazole]  21.0 μm
3. C[C@@H](c1ncncc1F)[C@](O)(Cn1cncn1)c1ccc(F)cc1F [Example 23, Voriconazole]  19.8 μm
4. C[C@@H](c1ncncc1F)[C@](O)(Cn1cncn1)c1ccc(F)cc1F [Example 25, Voriconazole]  19.4 μm
5. C[C@@H](c1ncncc1F)[C@](O)(Cn1cncn1)c1ccc(F)cc1F [Example 18, Voriconazole]  18.7 μm
6. C[C@@H](c1ncncc1F)[C@](O)(Cn1cncn1)c1ccc(F)cc1F [Example 21, Voriconazole]  18.3 μm
7. C[C@@H](c1ncncc1F)[C@](O)(Cn1cncn1)c1ccc(F)cc1F [Example 20, Voriconazole]  17.5 μm

In order of rising “Particle Size Distribution D(v, 0.1)” value:
1. C[C@@H](c1ncncc1F)[C@](O)(Cn1cncn1)c1ccc(F)cc1F [Example 20, Voriconazole]  4.2 μm
2. C[C@@H](c1ncncc1F)[C@](O)(Cn1cncn1)c1ccc(F)cc1F [Example 18, Voriconazole]  4.5 μm
3. C[C@@H](c1ncncc1F)[C@](O)(Cn1cncn1)c1ccc(F)cc1F [Example 23, Voriconazole]  5.2 μm
4. C[C@@H](c1ncncc1F)[C@](O)(Cn1cncn1)c1ccc(F)cc1F [Example 22, Voriconazole]  5.2 μm
5. C[C@@H](c1ncncc1F)[C@](O)(Cn1cncn1)c1ccc(F)cc1F [Example 21, Voriconazole]  5.3 μm
6. C[C@@H](c1ncncc1F)[C@](O)(Cn1cncn1)c1ccc(F)cc1F [Example 25, Voriconazole]  5.4 μm
7. C[C@@H](c1ncncc1F)[C@](O)(Cn1cncn1)c1ccc(F)cc1F [Example 19, Voriconazole]  5.7 μm
8. C[C@@H](c1ncncc1F)[C@](O)(Cn1cncn1)c1ccc(F)cc1F [Example 24, Voriconazole]  35.9 μm
9. C[C@@H](c1ncncc1F)[C@](O)(Cn1cncn1)c1ccc(F)cc1F [Example 2, Voriconazole]  36.9 μm

In order of falling “Particle Size Distribution D(v, 0.5)” value:
1. C[C@@H](c1ncncc1F)[C@](O)(Cn1cncn1)c1ccc(F)cc1F [Example 24, Voriconazole]  147.6 μm
2. C[C@@H](c1ncncc1F)[C@](O)(Cn1cncn1)c1ccc(F)cc1F [Example 2, Voriconazole]  102.4 μm
3. C[C@@H](c1ncncc1F)[C@](O)(Cn1cncn1)c1ccc(F)cc1F [Example 19, Voriconazole]  20.8 μm
4. C[C@@H](c1ncncc1F)[C@](O)(Cn1cncn1)c1ccc(F)cc1F [Example 22, Voriconazole]  19.1 μm
5. C[C@@H](c1ncncc1F)[C@](O)(Cn1cncn1)c1ccc(F)cc1F [Example 23, Voriconazole]  17.9 μm
6. C[C@@H](c1ncncc1F)[C@](O)(Cn1cncn1)c1ccc(F)cc1F [Example 25, Voriconazole]  17.5 μm
7. C[C@@H](c1ncncc1F)[C@](O)(Cn1cncn1)c1ccc(F)cc1F [Example 18, Voriconazole]  16.9 μm
8. C[C@@H](c1ncncc1F)[C@](O)(Cn1cncn1)c1ccc(F)cc1F [Example 21, Voriconazole]  16.7 μm
9. C[C@@H](c1ncncc1F)[C@](O)(Cn1cncn1)c1ccc(F)cc1F [Example 20, Voriconazole]  14.9 μm

In order of rising “Particle Size Distribution D(v, 0.9)” value:
1. C[C@@H](c1ncncc1F)[C@](O)(Cn1cncn1)c1ccc(F)cc1F [Example 20, Voriconazole]  34.1 μm
2. C[C@@H](c1ncncc1F)[C@](O)(Cn1cncn1)c1ccc(F)cc1F [Example 21, Voriconazole]  34.1 μm
3. C[C@@H](c1ncncc1F)[C@](O)(Cn1cncn1)c1ccc(F)cc1F [Example 25, Voriconazole]  37.2 μm
4. C[C@@H](c1ncncc1F)[C@](O)(Cn1cncn1)c1ccc(F)cc1F [Example 18, Voriconazole]  37.4 μm
5. C[C@@H](c1ncncc1F)[C@](O)(Cn1cncn1)c1ccc(F)cc1F [Example 23, Voriconazole]  37.5 μm
6. C[C@@H](c1ncncc1F)[C@](O)(Cn1cncn1)c1ccc(F)cc1F [Example 22, Voriconazole]  39.1 μm
7. C[C@@H](c1ncncc1F)[C@](O)(Cn1cncn1)c1ccc(F)cc1F [Example 19, Voriconazole]  43.4 μm
8. C[C@@H](c1ncncc1F)[C@](O)(Cn1cncn1)c1ccc(F)cc1F [Example 2, Voriconazole]  220.0 μm
9. C[C@@H](c1ncncc1F)[C@](O)(Cn1cncn1)c1ccc(F)cc1F [Example 24, Voriconazole]  350.0 μm

test: Tapped density; assay type: physicochemical; details: after milling, sieving and blending

With `C[C@@H](c1ncncc1F)[C@](O)(Cn1cncn1)c1ccc(F)cc1F` [Example 24, Voriconazole] the “Tapped Density” value was 0.82 g/mL.
